Assay results reported in US11008282B2, “Bicyclic-compounds for use as a medicament, in particular for treatment of parkinson's disease” (CAPROTEC BIOANALYTICS GMBH, priority 2015, dated 2021).
“Also recorded” adds a separate entry of the source. Read-outs that look alike come from different tables or passages of the source.

How the values were obtained:
HepG2 cells [1] = assay: Mitochondrial toxicity assessment (Glu/Gal), ATPlite / Mitochondrial ToxGlo assay; type: cell-based, human; settings: for mitochondrial cytotoxicity: HepG2 cells (FIG. 7); for IC50 in galactose media compared to glucose media: ATP content, HepG2 cells
HIBCH [2] = molecular target: T1, HIBCH (Homo sapiens, UniProt Q6NVY1); assay: Capture assay with CPT-224 followed by anti-HIBCH / streptavidin Western Blot; type: binding; parameters: made in house; host or cells: E. coli BL21; settings: for competition of HIBCH capturing (anti-HIBCH Western Blot): CPT-224, competitor; for competition of crosslinking of HIBCH with CPT-224 (anti-Streptavidin Western Blot): recombinant HIBCH
T1 sequence (Q6NVY1 33-386): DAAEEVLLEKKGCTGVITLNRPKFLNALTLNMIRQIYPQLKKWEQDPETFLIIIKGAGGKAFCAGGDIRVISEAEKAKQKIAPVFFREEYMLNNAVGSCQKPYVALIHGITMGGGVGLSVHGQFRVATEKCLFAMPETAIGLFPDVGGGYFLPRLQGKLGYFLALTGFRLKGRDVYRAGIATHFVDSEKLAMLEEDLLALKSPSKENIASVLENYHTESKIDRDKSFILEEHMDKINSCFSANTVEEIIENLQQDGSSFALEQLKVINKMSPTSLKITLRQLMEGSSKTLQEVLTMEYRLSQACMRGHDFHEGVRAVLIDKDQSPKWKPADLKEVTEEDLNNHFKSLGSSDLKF

COMT [3] = molecular target: T2, COMT (Homo sapiens, UniProt P21964); assay: Capture assay with CPT-224 followed by anti-COMT / streptavidin Western Blot; type: binding; settings: for competition of COMT capturing (anti-COMT Western Blot): active capture compound, competitor; for competition of crosslinking of COMT with CPT-224 (anti-Streptavidin Western Blot): recombinant COMT
T2 construct: His; host or cells: E. coli BL21
T2 sequence (P21964 1-221 isoform P21964-2): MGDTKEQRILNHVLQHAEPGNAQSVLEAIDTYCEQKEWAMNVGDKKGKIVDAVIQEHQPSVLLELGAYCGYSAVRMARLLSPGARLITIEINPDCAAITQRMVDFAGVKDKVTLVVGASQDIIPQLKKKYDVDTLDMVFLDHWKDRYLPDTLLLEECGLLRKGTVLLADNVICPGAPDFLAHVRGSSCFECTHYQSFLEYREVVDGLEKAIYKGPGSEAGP

COMT [4] = molecular target: T2, COMT; assay: COMT activity microplate assay (aesculetin methylation, fluorometric); type: biochemical
CCBL2 = molecular target: T3, CCBL2 (Homo sapiens, UniProt Q6YP21); assay: CCMS differential competition, HepG2 lysate, active capture compound CPT-224; type: binding; settings: CPT-224 1 μM; for Fc: fold change assay vs competition, 50 μM competitor; for MS/MS: with 50 μM competitor, HepG2 lysate
T3 construct: performing CCMS experiments in the hepatoma-derived cell line HepG2; host or cells: HepG2 lysate

ADI1 = molecular target: T4, ADI1 (Homo sapiens, UniProt Q9BV57); assay: as above; type: binding; settings: CPT-224 1 μM; for Fc: fold change assay vs competition, 50 μM competitor; for MS/MS: with 50 μM competitor, HepG2 lysate
T4 construct: performing CCMS experiments in the hepatoma-derived cell line HepG2; host or cells: HepG2 lysate
T4 sequence (Q9BV57 1-179): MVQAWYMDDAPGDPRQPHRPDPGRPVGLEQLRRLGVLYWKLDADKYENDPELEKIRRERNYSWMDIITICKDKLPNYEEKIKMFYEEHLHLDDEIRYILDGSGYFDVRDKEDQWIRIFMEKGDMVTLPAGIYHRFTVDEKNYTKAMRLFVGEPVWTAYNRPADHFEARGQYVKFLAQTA

GCDH = molecular target: T5, GCDH (Homo sapiens, UniProt Q92947); assay: as above; type: binding; settings: CPT-224 1 μM; for Fc: fold change assay vs competition, 50 μM competitor; for MS/MS: with 50 μM competitor, HepG2 lysate
T5 construct: performing CCMS experiments in the hepatoma-derived cell line HepG2; host or cells: HepG2 lysate
T5 sequence (Q92947 45-438): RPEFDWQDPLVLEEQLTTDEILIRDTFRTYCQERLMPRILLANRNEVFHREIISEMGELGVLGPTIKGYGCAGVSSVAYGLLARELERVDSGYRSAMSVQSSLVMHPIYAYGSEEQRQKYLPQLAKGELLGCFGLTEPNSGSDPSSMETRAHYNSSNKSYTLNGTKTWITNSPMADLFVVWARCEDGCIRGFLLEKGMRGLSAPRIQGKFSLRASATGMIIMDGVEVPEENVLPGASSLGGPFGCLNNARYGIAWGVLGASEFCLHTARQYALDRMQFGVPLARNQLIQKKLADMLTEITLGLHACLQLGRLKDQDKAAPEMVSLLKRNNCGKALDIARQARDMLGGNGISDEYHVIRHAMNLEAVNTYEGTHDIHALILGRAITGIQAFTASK

NIPSNAP3A = molecular target: T6, NIPSNAP3A (Homo sapiens, UniProt Q9UFN0); assay: CCMS differential competition, HepG2 lysate, inactive capture compound CPT-220; type: binding; settings: CPT-220 1 μM; for Fc: fold change assay vs competition, 50 μM competitor; for MS/MS: with 50 μM competitor, HepG2 lysate
T6 construct: performing CCMS experiments in the hepatoma-derived cell line HepG2; host or cells: HepG2 lysate
T6 sequence (Q9UFN0 1-247): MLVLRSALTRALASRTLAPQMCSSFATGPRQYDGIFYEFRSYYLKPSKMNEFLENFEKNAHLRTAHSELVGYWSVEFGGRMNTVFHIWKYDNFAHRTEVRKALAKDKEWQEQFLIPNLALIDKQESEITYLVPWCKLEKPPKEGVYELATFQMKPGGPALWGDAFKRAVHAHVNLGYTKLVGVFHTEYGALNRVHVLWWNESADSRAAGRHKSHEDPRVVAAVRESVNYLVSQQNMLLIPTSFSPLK

AKR1B10 = molecular target: T7, AKR1B10 (Homo sapiens, UniProt O60218); assay: as above; type: binding; settings: CPT-220 1 μM; for Fc: fold change assay vs competition, 50 μM competitor; for MS/MS: with 50 μM competitor, HepG2 lysate
T7 construct: performing CCMS experiments in the hepatoma-derived cell line HepG2; host or cells: HepG2 lysate

PDXK = molecular target: T8, PDXK (Homo sapiens, UniProt O00764); assay: as above; type: binding; settings: CPT-220 1 μM; for Fc: fold change assay vs competition, 50 μM competitor; for MS/MS: with 50 μM competitor, HepG2 lysate
T8 construct: performing CCMS experiments in the hepatoma-derived cell line HepG2; host or cells: HepG2 lysate
T8 sequence (O00764 1-312): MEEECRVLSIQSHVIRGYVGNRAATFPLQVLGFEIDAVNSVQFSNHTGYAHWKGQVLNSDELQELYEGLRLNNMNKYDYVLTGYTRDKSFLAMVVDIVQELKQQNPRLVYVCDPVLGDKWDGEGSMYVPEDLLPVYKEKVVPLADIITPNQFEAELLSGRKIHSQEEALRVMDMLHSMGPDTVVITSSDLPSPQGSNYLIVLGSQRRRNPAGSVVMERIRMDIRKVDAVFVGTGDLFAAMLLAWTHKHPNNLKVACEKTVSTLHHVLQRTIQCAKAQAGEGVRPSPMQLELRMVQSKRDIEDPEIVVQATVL

HIBCH [5] = molecular target: T1, HIBCH; assay: dCCMS and dose-dependent capturing, HepG2 lysate; type: binding; parameters: performing CCMS experiments in the hepatoma-derived cell line HepG2; host or cells: HepG2 lysate; settings: for competition of HIBCH capture (dCCMS): CPT-224 1 μM, competitor 50 μM, HepG2 lysate; for binding to HIBCH: dCCMS (FIG. 5, FIG. 6)
HepG2 cells [6] = settings: human
COMT [7] = molecular target: T9, COMT (Homo sapiens, UniProt P21964); assay: CCMS differential competition and dose-dependent capturing, HepG2 lysate; type: binding; settings: for Fc: fold change assay vs competition, 50 μM competitor; for Fc / MS/MS: CPT-224 1 μM; for MS/MS: with 50 μM competitor, HepG2 lysate; for competition of COMT capture, dose-dependent capturing: CPT-224 5 μM to 40 nM
T9 construct: performing CCMS experiments in the hepatoma-derived cell line HepG2; host or cells: HepG2 lysate
T9 sequence (P21964 1-271): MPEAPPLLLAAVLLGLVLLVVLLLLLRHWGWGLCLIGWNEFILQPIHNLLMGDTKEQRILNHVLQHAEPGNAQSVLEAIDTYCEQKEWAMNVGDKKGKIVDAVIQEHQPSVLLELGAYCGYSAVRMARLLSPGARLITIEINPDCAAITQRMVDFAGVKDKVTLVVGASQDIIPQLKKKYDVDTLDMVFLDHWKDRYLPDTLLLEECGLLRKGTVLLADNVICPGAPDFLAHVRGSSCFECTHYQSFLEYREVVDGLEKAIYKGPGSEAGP

[8] = in vivo; cited from earlier work
α-synuclein monomers = α-synuclein monomers (Homo sapiens, UniProt P37840); settings: cited from earlier work
[9] = molecular target: enoyl-acyl carrier protein reductase (InhA) (Mycobacterium tuberculosis, UniProt P9WGR1); settings: cited from earlier work
Aβ42 protofibrils = Aβ42 protofibrils (Homo sapiens, UniProt P05067); settings: cited from earlier work
Sequence of Aβ42 protofibrils (P05067 672-713 limits assumed): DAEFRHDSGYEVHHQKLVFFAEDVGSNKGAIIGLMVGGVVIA

T7 sequence (O60218 whole entry): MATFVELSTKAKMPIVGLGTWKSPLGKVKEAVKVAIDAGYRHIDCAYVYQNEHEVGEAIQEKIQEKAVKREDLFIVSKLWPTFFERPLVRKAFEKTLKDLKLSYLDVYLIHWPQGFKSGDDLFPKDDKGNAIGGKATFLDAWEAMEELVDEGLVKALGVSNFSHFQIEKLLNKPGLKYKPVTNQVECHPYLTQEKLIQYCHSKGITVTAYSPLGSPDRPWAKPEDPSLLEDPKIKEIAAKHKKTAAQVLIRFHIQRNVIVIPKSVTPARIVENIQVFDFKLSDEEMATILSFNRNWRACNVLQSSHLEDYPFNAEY
T3 sequence (Q6YP21 whole entry): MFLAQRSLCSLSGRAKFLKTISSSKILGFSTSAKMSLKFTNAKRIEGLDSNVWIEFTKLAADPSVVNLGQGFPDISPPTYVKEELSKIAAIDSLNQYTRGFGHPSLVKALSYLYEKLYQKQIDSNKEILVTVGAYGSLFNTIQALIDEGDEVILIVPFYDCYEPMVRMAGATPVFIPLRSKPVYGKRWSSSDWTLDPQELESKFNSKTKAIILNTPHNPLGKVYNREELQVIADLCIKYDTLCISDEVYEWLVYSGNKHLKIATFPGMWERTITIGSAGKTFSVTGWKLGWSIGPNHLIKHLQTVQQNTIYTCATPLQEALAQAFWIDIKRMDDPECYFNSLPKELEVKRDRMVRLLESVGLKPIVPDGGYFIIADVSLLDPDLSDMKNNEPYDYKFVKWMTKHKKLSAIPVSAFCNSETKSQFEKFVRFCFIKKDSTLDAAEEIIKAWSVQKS
Sequence of enoyl-acyl carrier protein reductase (InhA) (P9WGR1 whole entry, looked up): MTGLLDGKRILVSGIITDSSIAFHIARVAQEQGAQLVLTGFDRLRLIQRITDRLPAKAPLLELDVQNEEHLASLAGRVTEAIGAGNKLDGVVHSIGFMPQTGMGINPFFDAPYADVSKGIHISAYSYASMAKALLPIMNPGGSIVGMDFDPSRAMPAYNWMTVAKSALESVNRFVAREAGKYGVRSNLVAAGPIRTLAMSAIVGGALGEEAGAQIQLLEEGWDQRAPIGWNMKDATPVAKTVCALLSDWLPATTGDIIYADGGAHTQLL

CCN1C(=O)S/C(=C\c2cc(O)c(O)c([N+](=O)[O-])c2)C1=O [CPT-212]
mitochondrial cytotoxicity (HepG2 cells [1]): significantly higher than that of entacapone and CPT-401 (A1)
competition of HIBCH capturing (anti-HIBCH Western Blot) (HIBCH [2]): capturing was abolished
competition of crosslinking of HIBCH with CPT-224 (anti-Streptavidin Western Blot) (HIBCH [2]): competed
competition of COMT capturing (anti-COMT Western Blot) (COMT [3]): signals were abolished
competition of crosslinking of COMT with CPT-224 (anti-Streptavidin Western Blot) (COMT [3]): competed
IC50 (COMT [4]): 179 nM
Fc (CCBL2): 3.40
MS/MS (CCBL2): 2
Fc (ADI1): 4.29
MS/MS (ADI1): 0.3
Fc (GCDH): 6.34
MS/MS (GCDH): 2.3
Fc (NIPSNAP3A): 3
MS/MS (NIPSNAP3A): 0.025
Fc (AKR1B10): 3.1
MS/MS (AKR1B10): 0
Fc (PDXK): 24.9
MS/MS (PDXK): 3.75
competition of HIBCH capture (dCCMS) (HIBCH [5]): specifically competed
binding to HIBCH (HIBCH [5]): identified to bind
mitochondrial membrane potential (HepG2 cells [6]; 50 μM): 20-30 % of untreated HepG2 cells
mitochondrial membrane potential (HepG2 cells [6]; 100 μM): 0-5 % of the control
Fc (COMT [7]): 10.90
MS/MS (COMT [7]): 5

CCN(CC)C(=O)c1cc2cc(O)c(O)c([N+](=O)[O-])c2cc1C(=O)N(CC)CC [CPT-401, N2,N2,N3,N3-tetraethyl-6,7-dihydroxy-5-nitro-naphthalene-2,3-dicarboxamide]
IC50 in galactose media compared to glucose media (HepG2 cells [1]): much less than for CPT-212 (B1)
mitochondrial cytotoxicity (HepG2 cells [1]): low mitochondrial cytotoxicity
competition of crosslinking of HIBCH with CPT-224 (anti-Streptavidin Western Blot) (HIBCH [2]): no competition
competition of COMT capturing (anti-COMT Western Blot) (COMT [3]): signals were abolished
competition of crosslinking of COMT with CPT-224 (anti-Streptavidin Western Blot) (COMT [3]): competed
IC50 (COMT [4]): 54 nM
Fc (CCBL2): 3.05
MS/MS (CCBL2): 2.6
Fc (ADI1): 3.67
MS/MS (ADI1): 0.3
Fc (GCDH): 5.90
MS/MS (GCDH): 2.6
Fc (NIPSNAP3A): 7.5
MS/MS (NIPSNAP3A): 0
Fc (AKR1B10): 4.7
MS/MS (AKR1B10): 0.5
Fc (PDXK): 16
MS/MS (PDXK): 0
competition of HIBCH capture (dCCMS) (HIBCH [5]): no competition was observed
mitochondrial membrane potential (HepG2 cells [6]; 50 μM): more than 50 % of untreated HepG2 cells
mitochondrial membrane potential (HepG2 cells [6]; 100 μM): 40-50 % of the control
competition of COMT capture, dose-dependent capturing (COMT [7]): complete competition
Fc (COMT [7]): 34.2
MS/MS (COMT [7]): 3

CCN(CC)C(=O)/C(C#N)=C/c1cc(O)c(O)c([N+](=O)[O-])c1 [entacapone, reference compound]
toxicity [8]: more favorable toxicity profile
IC50 in galactose media compared to glucose media (HepG2 cells [1]): a much smaller effect
mitochondrial membrane potential (HepG2 cells [6]; 50 μM): more than 50 % of untreated HepG2 cells
mitochondrial membrane potential (HepG2 cells [6]; 100 μM): 40-50 % of the control

Cc1ccc(C(=O)c2cc(O)c(O)c([N+](=O)[O-])c2)cc1 [tolcapone, reference compound]
toxicity [8]: severe hepatotoxicity in several cases
IC50 in galactose media compared to glucose media (HepG2 cells [1]): > 4 fold
mitochondrial cytotoxicity (HepG2 cells [1]): mitochondrial toxicant; also recorded: significantly higher than that of entacapone and CPT-401 (A1)
inhibition of aggregation of α-synuclein monomers (α-synuclein monomers): inhibit aggregation of α-synuclein monomers
competition of HIBCH capturing (anti-HIBCH Western Blot) (HIBCH [2]): capturing was abolished
competition of crosslinking of HIBCH with CPT-224 (anti-Streptavidin Western Blot) (HIBCH [2]): competed
binding and inhibition of InhA [9]: bind and inhibit
inhibition of aggregation of Aβ42 protofibrils to mature amyloid fibrils (Aβ42 protofibrils): inhibit the aggregation of Aβ42 protofibrils to mature amyloid fibrils
competition of HIBCH capture (dCCMS) (HIBCH [5]): specifically identified when tolcapone was used as competitor
competition of HIBCH capture, dose-dependent capturing (HIBCH [5]; CPT-224 5 μM to 40 nM): competed only with tolcapone
binding to HIBCH (HIBCH [5]): identified to bind
mitochondrial membrane potential (HepG2 cells [6]; 50 μM): 20-30 % of untreated HepG2 cells
mitochondrial membrane potential (HepG2 cells [6]; 100 μM): 0-5 % of the control
competition of COMT capture, dose-dependent capturing (COMT [7]): complete competition
